The values that follow come from ChEMBL document CHEMBL4043124 (Bioorg Med Chem, 2017).

pKi: −log10 of the molar value. Bounds are passed on as bounds.

The experiment can be described thus: Inhibition of Burkholderia pseudomallei beta-CA incubated for 15 mins by stopped-flow CO2 hydration assay.
Compound `F[P-](F)(F)(F)(F)F.[Na+]` gave a pKi of less than 1.00.

Compound `OB(O)c1ccccc1` [PHENYLBORONIC ACID] gave a pKi of less than 1.00.

Compound `[N-]=[N+]=[N-]` [SODIUM AZIDE] had a pKi of less than 1.00.

In the case of `O=S([O-])O.[Na+]` [SODIUM BISULFITE], the pKi was less than 1.00.

`N#CO` [SODIUM CYANATE] showed a pKi of 2.17.

Compound `[F-].[Na+]` [SODIUM FLUORIDE] gave a pKi of less than 1.00.

For the compound `[O-][Cl+3]([O-])([O-])O` [SODIUM PERCHLORATE], the pKi is less than 1.00.

With `O=S(=O)(O)OOS(=O)(=O)O` [SODIUM PERSULFATE], the pKi is less than 1.00.

The compound `O=BOB(O)OB(O)OB=O` [SODIUM TETRABORATE] gave a pKi of less than 1.00.

`F[B-](F)(F)F.[Na+]` [SODIUM TETRAFLUOROBORATE] gave a pKi of less than 1.00.

What is called pKi is the Ki on a negative log10 scale, so that one unit is a factor of ten. Read a low pKi as a large Ki.
